Experimental data from the supplement of paper PMC9663587.

Key:
[1] = compound: CCN1CCN(Cc2ccc(Nc3ncc(F)c(-c4cc(F)c5nc(C)n(C(C)C)c5c4)n3)nc2)CC1; assay: increase in dead-cell fraction, 72 h; higher = more death;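 note: breast cancer cell lines in 384-well plates, stained with Hoechst plus LIVE/DEAD far red dye and imaged, cells above an LDR intensity threshold counted dead, Hoechst-negative corpses included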
Flavopiridol [2] = compound: T1, CN1CC[C@H](c2c(O)cc(O)c3c(=O)cc(-c4ccccc4Cl)oc23)[C@H](O)C1 [Flavopiridol]; assay: as above
LEE011/Ribociclib = compound: CN(C)C(=O)c1cc2cnc(Nc3ccc(N4CCNCC4)cn3)nc2n1C1CCCC1 [LEE011/Ribociclib]; assay: GR value, 72 h; higher = faster growth (1 = untreated, <0 = killing);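 note: breast cancer and non-malignant breast epithelial lines, nine half-log doses, viable cells counted by Hoechst and LIVE/DEAD dye imaging versus time-zero plates and DMSO controls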
[3] = compound: CCN1CCN(Cc2ccc(Nc3ncc(F)c(-c4cc(F)c5nc(C)n(C(C)C)c5c4)n3)nc2)CC1; assay: as above
[4] = compound: CCc1cnn2c(NCc3ccc[n+]([O-])c3)cc(N3CCCC[C@H]3CCO)nc12; assay: as above
Flavopiridol [5] = compound: T1, Flavopiridol; assay: as above
[6] = compound: CC(=O)c1c(C)c2cnc(Nc3ccc(N4CCNCC4)cn3)nc2n(C2CCCC2)c1=O; assay: as above
THZ1 = compound: CN(C)C/C=C/C(=O)Nc1ccc(C(=O)Nc2cccc(Nc3ncc(Cl)c(-c4c[nH]c5ccccc45)n3)c2)cc1 [THZ1]; assay: as above
THZ531 = compound: CN(C)C/C=C/C(=O)Nc1ccc(C(=O)N2CCC[C@@H](Nc3ncc(Cl)c(-c4c[nH]c5ccccc45)n3)C2)cc1 [THZ531]; assay: as above
BSJ-03-123 = compound: CC(=O)c1c(C)c2cnc(Nc3ccc(N4CCN(CCOCCOCCOCCNC(=O)COc5cccc6c5C(=O)N(C5CCC(=O)NC5=O)C6=O)CC4)cn3)nc2n(C2CCCC2)c1=O [BSJ-03-123]; assay: as above
Neratinib/HKI272 = compound: CCOc1cc2ncc(C#N)c(Nc3ccc(OCc4ccccn4)c(Cl)c3)c2cc1NC(=O)/C=C/CN(C)C [Neratinib/HKI272]; assay: as above
YKL-5-124 = compound: C=CC(=O)Nc1ccc(C(=O)Nc2[nH]nc3c2CN(C(=O)N[C@H](CN(C)C)c2ccccc2)C3(C)C)cc1 [YKL-5-124]; assay: as above

SUM159
increase in dead-cell fraction ([1]; 0.001 µM): -0.0002 | increase in dead-cell fraction ([1]; 0.003162 µM): -0.0043 | increase in dead-cell fraction ([1]; 0.01 µM): -0.0052 | increase in dead-cell fraction ([1]; 0.03162 µM): -0.0042 | increase in dead-cell fraction ([1]; 0.1 µM): 0.0006 | increase in dead-cell fraction ([1]; 0.3162 µM): 0.0029 | increase in dead-cell fraction ([1]; 1 µM): 0.0118 | increase in dead-cell fraction ([1]; 3.162 µM): 0.0126 | increase in dead-cell fraction ([1]; 10 µM): 0.447 | increase in dead-cell fraction (Flavopiridol [2]; 0.0001 µM): -0.0034 | increase in dead-cell fraction (Flavopiridol [2]; 0.0003162 µM): -0.0008 | increase in dead-cell fraction (Flavopiridol [2]; 0.001 µM): -0.0034 | increase in dead-cell fraction (Flavopiridol [2]; 0.003162 µM): -0.0003 | increase in dead-cell fraction (Flavopiridol [2]; 0.01 µM): -0.0024 | increase in dead-cell fraction (Flavopiridol [2]; 0.03162 µM): 0.012 | increase in dead-cell fraction (Flavopiridol [2]; 0.1 µM): 0.0436 | increase in dead-cell fraction (Flavopiridol [2]; 0.3162 µM): 0.205 | increase in dead-cell fraction (Flavopiridol [2]; 1 µM): 0.208 | GR value (LEE011/Ribociclib; 0.001 µM): 0.942 GR | GR value (LEE011/Ribociclib; 0.003162 µM): 0.892 GR | GR value (LEE011/Ribociclib; 0.01 µM): 0.835 GR | GR value (LEE011/Ribociclib; 0.03162 µM): 0.814 GR | GR value (LEE011/Ribociclib; 0.1 µM): 0.786 GR | GR value (LEE011/Ribociclib; 0.3162 µM): 0.73 GR | GR value (LEE011/Ribociclib; 1 µM): 0.769 GR | GR value (LEE011/Ribociclib; 3.162 µM): 0.63 GR | GR value (LEE011/Ribociclib; 10 µM): 0.449 GR | GR value ([3]; 0.001 µM): 0.989 GR | GR value ([3]; 0.003162 µM): 0.962 GR | GR value ([3]; 0.01 µM): 0.897 GR | GR value ([3]; 0.03162 µM): 0.773 GR | GR value ([3]; 0.1 µM): 0.662 GR | GR value ([3]; 0.3162 µM): 0.558 GR | GR value ([3]; 1 µM): 0.405 GR | GR value ([3]; 3.162 µM): 0.308 GR | GR value ([3]; 10 µM): -0.0742 GR | GR value ([4]; 0.0001 µM): 1.01 GR | GR value ([4]; 0.0003162 µM): 1.01 GR | GR value ([4]; 0.001 µM): 1.02 GR | GR value ([4]; 0.003162 µM): 1.02 GR | GR value ([4]; 0.01 µM): 0.937 GR | GR value ([4]; 0.03162 µM): -0.0092 GR | GR value ([4]; 0.1 µM): -0.0413 GR | GR value ([4]; 0.3162 µM): -0.0777 GR | GR value ([4]; 1 µM): -0.119 GR | GR value (Flavopiridol [5]; 0.0001 µM): 1.01 GR | GR value (Flavopiridol [5]; 0.0003162 µM): 0.998 GR | GR value (Flavopiridol [5]; 0.001 µM): 0.973 GR | GR value (Flavopiridol [5]; 0.003162 µM): 0.925 GR | GR value (Flavopiridol [5]; 0.01 µM): 0.941 GR | GR value (Flavopiridol [5]; 0.03162 µM): 0.885 GR | GR value (Flavopiridol [5]; 0.1 µM): 0.631 GR | GR value (Flavopiridol [5]; 0.3162 µM): 0.132 GR | GR value (Flavopiridol [5]; 1 µM): -0.0516 GR | GR value ([6]; 0.0003162 µM): 1 GR | GR value ([6]; 0.001 µM): 0.988 GR | GR value ([6]; 0.003162 µM): 0.987 GR | GR value ([6]; 0.01 µM): 0.947 GR | GR value ([6]; 0.03162 µM): 0.881 GR | GR value ([6]; 0.1 µM): 0.755 GR | GR value ([6]; 0.3162 µM): 0.64 GR | GR value ([6]; 1 µM): 0.574 GR | GR value ([6]; 3.162 µM): 0.468 GR | GR value (THZ1; 0.0001 µM): 1.01 GR | GR value (THZ1; 0.0003162 µM): 0.974 GR | GR value (THZ1; 0.001 µM): 0.974 GR | GR value (THZ1; 0.003162 µM): 0.963 GR | GR value (THZ1; 0.01 µM): 0.99 GR | GR value (THZ1; 0.03162 µM): 0.955 GR | GR value (THZ1; 0.1 µM): 0.809 GR | GR value (THZ1; 0.3162 µM): 0.646 GR | GR value (THZ1; 1 µM): -0.112 GR | GR value (THZ531; 0.0001 µM): 0.957 GR | GR value (THZ531; 0.0003162 µM): 0.95 GR | GR value (THZ531; 0.001 µM): 0.98 GR | GR value (THZ531; 0.003162 µM): 0.972 GR | GR value (THZ531; 0.01 µM): 0.974 GR | GR value (THZ531; 0.03162 µM): 1.03 GR | GR value (THZ531; 0.1 µM): 0.979 GR | GR value (THZ531; 0.3162 µM): 0.965 GR | GR value (THZ531; 1 µM): 0.61 GR | GR value (BSJ-03-123; 0.001 µM): 0.918 GR | GR value (BSJ-03-123; 0.003162 µM): 0.925 GR | GR value (BSJ-03-123; 0.01 µM): 0.897 GR | GR value (BSJ-03-123; 0.03162 µM): 0.826 GR | GR value (BSJ-03-123; 0.1 µM): 0.826 GR | GR value (BSJ-03-123; 0.3162 µM): 0.797 GR | GR value (BSJ-03-123; 1 µM): 0.687 GR | GR value (BSJ-03-123; 3.162 µM): 0.526 GR | GR value (BSJ-03-123; 10 µM): -0.042 GR | GR value (Neratinib/HKI272; 0.0003162 µM): 1.01 GR | GR value (Neratinib/HKI272; 0.001 µM): 1.02 GR | GR value (Neratinib/HKI272; 0.003162 µM): 1.02 GR | GR value (Neratinib/HKI272; 0.01 µM): 0.994 GR | GR value (Neratinib/HKI272; 0.03162 µM): 0.96 GR | GR value (Neratinib/HKI272; 0.1 µM): 0.927 GR | GR value (Neratinib/HKI272; 0.3162 µM): 0.851 GR | GR value (Neratinib/HKI272; 1 µM): 0.705 GR | GR value (Neratinib/HKI272; 3.162 µM): 0.507 GR | GR value (YKL-5-124; 0.001 µM): 0.554 GR | GR value (YKL-5-124; 0.003162 µM): 0.292 GR | GR value (YKL-5-124; 0.01 µM): 0.169 GR | GR value (YKL-5-124; 0.03162 µM): 0.149 GR | GR value (YKL-5-124; 0.1 µM): 0.136 GR | GR value (YKL-5-124; 0.3162 µM): 0.0731 GR | GR value (YKL-5-124; 1 µM): 0.0819 GR | GR value (YKL-5-124; 3.162 µM): 0.0501 GR | GR value (YKL-5-124; 10 µM): -0.146 GR
